Measurements: patent US20140314890A1, “COMBINATION ANTI-CANCER THERAPY” (THE FLORIDA INTERNATIONAL UNIVERSITY BOARD OF TRUSTEES, priority 2011, published 2014)

Columns and labels:
Type in all cases: cell-based
caspase-9 = assay: Caspase-9 activity, colorimetric assay of cell lysates (Ac-LEHD-pNA); settings: LNCaP; C-PC 250 μg/mL, topotecan 10 μM; 16 hours
Protocol: (§1) LNCaP cells were treated with different concentrations of the C-PC (250 μg mL−1) and topotecan (10 μM) for 16 hours. After the incubation time, cells were harvested, washed and resuspended in cell lysis buffer and kept on ice for 10 minutes. The cell lysate was centrifuged at 5000 rpm for 5 minutes, the supernatant was assayed for protein concentration and further diluted with the lysis buffer to adjust the protein concentration. Equal amounts of protein from each sample was added to 96-well plates and mixed with the 2×reaction buffer [100 mM HEPES (pH 7.4), 200 mM NaCl, 20 mM dithiotheritol, 2 mM EDTA, and 0.2% chaps] and 2 mM of the respective substrates acetyl-Leu-Glu-His-Asp-p-nitroaniline (Ac-LEHD-pNA) and acetyl-Asp-Glu-Val-Asp-p-nitroaniline (Ac-DEVD-pNA). For measuring the specific activity of caspase-9 and caspase-3, the respective inhibitors Ac-LEHD-CHO and Ac-DEVD-CHO were used. Release of the cleaved p-nitroanilide from the tetrapeptide substrates was measured using the 96-well microplate reader at 405 nm.

LNCaP cells [1] = assay: ROS generation by NBT reduction assay; settings: 16 hours
Protocol: (§2) The LNCaP cells were grown as a complete monolayer in RPMI-1640 growth medium supplemented with 10% fetal bovine serum, 10,000 U/mL of penicillin, 10,000 μg/mL of streptomycin, 1% (+)-L-glutamine, and 1% amphotericin-B. The cells were grown at 37° C. under a humidified air/CO2 (19:1) atmosphere. All experiments were conducted using cells in logarithmic phase. In each well of a six-well plate, approximately 1×10^6 cells per well were grown for 24 hours.
(§3) To determine the cell viability, monolayer culture of LNCaP cells were treated with different concentrations of the C-PC (250 and 500 μg mL−1) and topotecan (1 μM and 10 μM) individually and in combination of C-PC (250 and 500 μg mL−1) with topotecan at 1 μM for 16 hours. After the incubation period, cell death was determined by using trypan blue dye exclusion test. To determine the levels of ROS generation, the cells cultured in 6-well plate were incubated with different concentrations of C-PC and topotecan as described above for 16 hours. At the end of incubation period, levels of ROS generated were measured using the NBT reduction assay.

caspase-3 = assay: Caspase-3 activity, colorimetric assay of cell lysates (Ac-DEVD-pNA); settings: LNCaP; C-PC 250 μg/mL, topotecan 10 μM; 16 hours
Protocol: as §1

LNCaP cells [2] = assay: Cell death / cell viability by trypan blue dye exclusion test; settings: for inhibition of cell growth (percentage of live cells, FIG. 1): LNCaP, C-PC 250 and 500 μg/mL or topotecan 1 μM and 10 μM individually, 16 hours
Protocol: as §2, §3

Molecule | caspase-9 activity compared to untreated control cells (FIG. 4) (caspase-9) | rate of ROS generation (FIG. 2) (LNCaP cells [1]) | caspase-3 activity compared to untreated control cells (FIG. 4) (caspase-3) | inhibition of cell growth (percentage of live cells, FIG. 1) (LNCaP cells [2]) | antiproliferative activity (LNCaP cells [2]; prostate cancer cell line LNCaP, preliminary work)
phycocyanin | increased | significant increase in the rate of ROS generation | increased | significant inhibition of cell growth | had antiproliferative activity
CC[C@@]1(O)C(=O)OCc2c1cc1n(c2=O)Cc2cc3c(CN(C)C)c(O)ccc3nc2-1 [topotecan, reference compound] | increased | significant increase in the rate of ROS generation | increased | significant inhibition of cell growth | –
